Measurements from patent publication US11000033B2, “Ketone or oxime compound, and herbicide” (NISSAN CHEMICAL CORPORATION, priority 2014, dated 2021).

Tests used:
Assay type in all cases: in vivo
Lolium multiflorum Lam. = test: Test Example 5: herbicidal effect by foliage application, plastic box (symbol K); conditions: 320 g/ha, 3 weeks after application
How it was run: (§1)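 Visual herbicidal score, taken three weeks post-application, of seedlings sprayed on the foliage with water-diluted emulsion at a predetermined amount; plants were 14 days old, greenhouse-raised at 25° C. to 30° C.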

Monochoria vaginalis = test: Test Example 1: herbicidal activity, application before weed generation in submerged conditions (symbol C); conditions: application herbicide amount 320 g/ha
How it was run: (§2)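 Compound emulsion was diluted to a set herbicide amount and applied to the water surface on the sowing day, into submerged (4 cm) alluvial-soil pots sown with mixed weed seeds and transplanted 2.5-leaf rice. Pots were held in a 25–30 °C greenhouse, and weeds were scored 0–5 by herbicidal ratio after 3 weeks.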

Scirpus juncoides [1] = test: Test Example 2: herbicidal activity, application during weed generation in submerged conditions (symbol B); conditions: Table 23; application herbicide amount 320 g/ha; grade 0-5 by criteria of Test Example 1
How it was run: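 Flooded-soil post-emergence test: emulsion of compound, water-diluted to target rate, applied to paddy water surface at 1–2 leaf stage of mixed-sown weeds (alluvial soil, 4 cm water, 25–30° C. greenhouse); visual rating 3 weeks after application.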

rapeseed = test: Test Example 4: effect on crop by soil treatment (symbol g); conditions: application herbicide amount 320 g/ha
How it was run: (§3)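 Grown at 25° C. to 30° C. in a greenhouse, the crops came from seed sown spot-wise in sterilized diluvial soil under roughly 1.5 cm of covering soil.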

Digitaria ciliaris = test: Test Example 5: herbicidal effect by foliage application, plastic box (symbol F); conditions: 320 g/ha, 3 weeks after application
How it was run: as §1

corn [2] = test: Test Example 4: effect on crop by soil treatment (symbol c); conditions: application herbicide amount 320 g/ha
How it was run: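 Greenhouse culture at 25° C. to 30° C. followed sowing of seed in spots on sterilized diluvial soil with a soil cover close to 1.5 cm thick.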

rice = test: Test Example 4: effect on crop by soil treatment (symbol b); conditions: application herbicide amount 320 g/ha
How it was run: as §3

Galium spurium = test: Test Example 5: herbicidal effect by foliage application, plastic box (symbol Q); conditions: 320 g/ha, 3 weeks after application
How it was run: as §1

Avena fatua = test: Test Example 4: herbicidal effect by soil treatment (symbol I); conditions: application herbicide amount 320 g/ha
How it was run: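 Seeds were sown in sterilized diluvial soil, covered with about 1.5 cm of soil, and the soil surface was sprayed with a water-diluted emulsion of the compound at a predetermined rate. Plants grew in a greenhouse at 25° C. to 30° C.; effects were scored visually 3 weeks after application.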

Chenopodium album = test: Test Example 5: herbicidal effect by foliage application, plastic box (symbol O); conditions: 320 g/ha, 3 weeks after application
How it was run: as §1

soybean = test: Test Example 5: effect on crop by foliage application, plastic box (symbol d); conditions: 320 g/ha, 3 weeks after application
How it was run: (§4)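 Diluvial soil, sterilized and boxed (21 × 13 × 7 cm), received spot-sown seed covered by about 1.5 cm soil; plants were then greenhouse-grown at 25–30° C.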

corn [3] = test: Test Example 5: effect on crop by foliage application, plastic box (symbol c); conditions: 320 g/ha, 3 weeks after application
How it was run: as §4

Scirpus juncoides [4] = test: Test Example 1: herbicidal activity, application before weed generation in submerged conditions (symbol B); conditions: application herbicide amount 320 g/ha
How it was run: as §2

Veronica persica = test: Test Example 5: herbicidal effect by foliage application, plastic box (symbol R); conditions: 320 g/ha, 3 weeks after application
How it was run: as §1

| SMILES | K: Lolium multiflorum Lam., herbicidal effect (criteria of Test Example 1) (Lolium multiflorum Lam.) | Herbicidal effect grade, C: Monochoria vaginalis (Monochoria vaginalis) | Herbicidal effect grade, B: Scirpus juncoides (Scirpus juncoides [1]) | g: rapeseed, effect on crop grade (rapeseed) | F: Digitaria ciliaris, herbicidal effect (criteria of Test Example 1) (Digitaria ciliaris) | c: corn, effect on crop grade (corn [2]) | b: directly sowed rice plant, effect on crop grade (rice) | Q: Galium spurium, herbicidal effect (criteria of Test Example 1) (Galium spurium) | I: Avena fatua, herbicidal effect grade (Avena fatua) | O: Chenopodium album, herbicidal effect (criteria of Test Example 1) (Chenopodium album) | d: soybean, effect on crop (criteria of Test Example 1) (soybean) | c: corn, effect on crop (criteria of Test Example 1) (corn [3]) | Herbicidal effect grade, B: Scirpus juncoides (Scirpus juncoides [4]) | R: Veronica persica, herbicidal effect (criteria of Test Example 1) (Veronica persica) |
| --- | --- | --- | --- | --- | --- | --- | --- | --- | --- | --- | --- | --- | --- | --- |
| CON=C(C)CC1CC(O)=C(c2c(C)cc(C)cc2SC)C1=O (stereo not shown) [6-075] | 5 (Herbicidal ratio of 90% or more (almost completely withered)) | 2 (Herbicidal ratio of 20% or higher and lower than 40%) | 0 (Herbicidal ratio of 5% or lower (almost no effect)) | 0 (Herbicidal ratio of 5% or lower (almost no effect)) | 1 (Herbicidal ratio of 5% or higher and lower than 20%) | 0 (Herbicidal ratio of 5% or lower (almost no effect)) | 0 (Herbicidal ratio of 5% or lower (almost no effect)) | 0 (Herbicidal ratio of 5% or lower (almost no effect)) | 0 (Herbicidal ratio of 5% or lower (almost no effect)) | 0 (Herbicidal ratio of 5% or lower (almost no effect)) | 0 (Herbicidal ratio of 5% or lower (almost no effect)) | 4 (Herbicidal ratio of 70% or higher and lower than 90%) | 1 (Herbicidal ratio of 5% or higher and lower than 20%) | 0 (Herbicidal ratio of 5% or lower (almost no effect)) |
| CON=C(C)CC1CC(O)=C(c2c(C)cc(Br)cc2OC)C1=O (stereo not shown) [6-076, 2-(4-bromo-2-methoxy-6-methylphenyl)-3-hydroxy-5-{2-(methoxyimino)propyl}cyclopent-2-enone] | 5 (Herbicidal ratio of 90% or more (almost completely withered)) | 2 (Herbicidal ratio of 20% or higher and lower than 40%) | 1 (Herbicidal ratio of 5% or higher and lower than 20%) | 2 (Herbicidal ratio of 20% or higher and lower than 40%) | 5 (Herbicidal ratio of 90% or more (almost completely withered)) | 5 (Herbicidal ratio of 90% or more (almost completely withered)) | 5 (Herbicidal ratio of 90% or more (almost completely withered)) | 3 (Herbicidal ratio of 40% or higher and lower than 70%) | 3 (Herbicidal ratio of 40% or higher and lower than 70%) | 2 (Herbicidal ratio of 20% or higher and lower than 40%) | 1 (Herbicidal ratio of 5% or higher and lower than 20%) | 5 (Herbicidal ratio of 90% or more (almost completely withered)) | 3 (Herbicidal ratio of 40% or higher and lower than 70%) | 2 (Herbicidal ratio of 20% or higher and lower than 40%) |
| CON=C(C)CC1CC(O)=C(c2c(C)cc(-c3ccc(Cl)cc3)cc2OC)C1=O (stereo not shown) [6-077, 2-(4′-chloro-3-methoxy-5-methyl-[1,1′-biphenyl]-4-yl)-3-hydroxy-5-{2-(methoxyimino)propyl}cyclopent-2-enone] | 5 (Herbicidal ratio of 90% or more (almost completely withered)) | 3 (Herbicidal ratio of 40% or higher and lower than 70%) | 4 (Herbicidal ratio of 70% or higher and lower than 90%) | 4 (Herbicidal ratio of 70% or higher and lower than 90%) | 5 (Herbicidal ratio of 90% or more (almost completely withered)) | 0 (Herbicidal ratio of 5% or lower (almost no effect)) | 5 (Herbicidal ratio of 90% or more (almost completely withered)) | 4 (Herbicidal ratio of 70% or higher and lower than 90%) | 4 (Herbicidal ratio of 70% or higher and lower than 90%) | 4 (Herbicidal ratio of 70% or higher and lower than 90%) | 2 (Herbicidal ratio of 20% or higher and lower than 40%) | 5 (Herbicidal ratio of 90% or more (almost completely withered)) | 3 (Herbicidal ratio of 40% or higher and lower than 70%) | 4 (Herbicidal ratio of 70% or higher and lower than 90%) |
| CON=C(C)CC1CC(OC(=O)CCCC(C)=O)=C(c2c(C)cc(-c3ccc(Cl)cc3)cc2C)C1=O (stereo not shown) [6-080] | 5 (Herbicidal ratio of 90% or more (almost completely withered)) | 2 (Herbicidal ratio of 20% or higher and lower than 40%) | 4 (Herbicidal ratio of 70% or higher and lower than 90%) | 0 (Herbicidal ratio of 5% or lower (almost no effect)) | 5 (Herbicidal ratio of 90% or more (almost completely withered)) | 0 (Herbicidal ratio of 5% or lower (almost no effect)) | 0 (Herbicidal ratio of 5% or lower (almost no effect)) | 4 (Herbicidal ratio of 70% or higher and lower than 90%) | 0 (Herbicidal ratio of 5% or lower (almost no effect)) | 0 (Herbicidal ratio of 5% or lower (almost no effect)) | 1 (Herbicidal ratio of 5% or higher and lower than 20%) | 5 (Herbicidal ratio of 90% or more (almost completely withered)) | 1 (Herbicidal ratio of 5% or higher and lower than 20%) | 4 (Herbicidal ratio of 70% or higher and lower than 90%) |
| CON=C(C)CC1CC(O)=C(c2c(C)cc(-c3ccc(Cl)cc3F)cc2C)C1=O (stereo not shown) [6-084] | 5 (Herbicidal ratio of 90% or more (almost completely withered)) | 0 (Herbicidal ratio of 5% or lower (almost no effect)) | 3 (Herbicidal ratio of 40% or higher and lower than 70%) | 1 (Herbicidal ratio of 5% or higher and lower than 20%) | 5 (Herbicidal ratio of 90% or more (almost completely withered)) | 0 (Herbicidal ratio of 5% or lower (almost no effect)) | 2 (Herbicidal ratio of 20% or higher and lower than 40%) | 3 (Herbicidal ratio of 40% or higher and lower than 70%) | 5 (Herbicidal ratio of 90% or more (almost completely withered)) | 4 (Herbicidal ratio of 70% or higher and lower than 90%) | 5 (Herbicidal ratio of 90% or more (almost completely withered)) | 0 (Herbicidal ratio of 5% or lower (almost no effect)) | 3 (Herbicidal ratio of 40% or higher and lower than 70%) | 4 (Herbicidal ratio of 70% or higher and lower than 90%) |
